Experimental data published in patent US20100063126A1, “Carbazole-Derived Pharmaceutical Compositions” (JadoLabs GmbH, priority 2004, published 2010).

Tests used:
RBL-2H3 cells = assay: Degranulation assay (β-hexosaminidase release); assay type: cell-based, Rat
[1] = Disrafter-Liposome Raftophile Assay (D-LRA); details: 100 μM
PR8 virus = assay: microbe, parasite or virus in culture; assay type: cell-based; details: unidentified influenza virus, PR8, MDCK; for inhibition at 3.125 µM: read-out: inhibition of virus replication / infection
influenza virus = assay: Virus budding assay (influenza assay); assay type: cell-based
[2] = test system: vesicular stomatitis virus (VSV); assay type: cell-based; details: HeLa cells
HIV-1 strain NL4-3 = assay: microbe, parasite or virus in culture; assay type: cell-based; details: Human immunodeficiency virus 1, NL43, HeLa TZM cells, compared to solvent, read-out: inhibition of HIV infection
Wild type SV40 viruses = assay type: cell-based, Simian Virus 40; details: 15CM, HeLa cells, compared to solvent control
[3] = Rattus norvegicus, RBL-2H3, read-out: inhibition of release of β-hexosaminidase

Structure (SMILES): Cc1c(C)c2c(c(C)c1O)CC[C@@](C)(CCC[C@H](C)CCC[C@H](C)CCCC(C)C)O2 [Alpha-(+)-tocopherol]
- activity in mast cell degranulation assay (RBL-2H3 cells): moderately active

Structure (SMILES): CC(C)=CCc1ccc2[nH]c3c(c2c1)C(=O)C(=O)C(C)=C3C[C@@H](C)O [Compound 21a]
- disrafting activity (% disrafting) ([1]; perylene as marker): 47.2%
- inhibition at 100 µM (RBL-2H3 cells; [3]): 46%

Structure (SMILES): CCCCCCCC1=C(C)C(=O)C(=O)c2c1[nH]c1ccccc21 [Compound 21b]
- inhibition at 25 µM (PR8 virus; read-out: inhibition of virus replication): 18.3%
- inhibition in influenza virus budding assay (influenza virus): inhibitory

Structure (SMILES): CC1=C(Cc2ccc3[nH]c4c(c3c2)C(=O)C(=O)C(C)=C4CC(C)O)CCC(C)(C)C1 (centres unmarked) [Compound 22a]
- inhibition at 3.125 µM (PR8 virus): 24.2%
- inhibitory effect on viral infection in VSV counterscreen [2]: no inhibitory effect on viral infection at all
- inhibition at 10 µM (HIV-1 strain NL4-3): 15%
- inhibition in influenza virus budding assay (influenza virus): inhibitory
- inhibition of SV40 infection (Wild type SV40 viruses): 19%

Structure (SMILES): CCCCCCCC1(O)C(C)=C(OC)C(=O)c2c1[nH]c1ccccc21 (centres unmarked) [Compound 22c]
- inhibition at 3.125 µM (PR8 virus): 60.2%
- inhibition at 10 µM (HIV-1 strain NL4-3): 44%
- inhibition in influenza virus budding assay (influenza virus): inhibitory
- inhibition at 50 µM (RBL-2H3 cells; [3]): 12%

Structure (SMILES): CCCCCCCc1c(C)c(OC)c(OC)c2c1[nH]c1ccccc12 [Compound 22d]
- inhibition at 10 µM (HIV-1 strain NL4-3): 21%

Structure (SMILES): CCCCCCCc1c(C)c(O)cc2c1[nH]c1ccccc12 [Compound 23d]
- disrafting activity (% disrafting) ([1]; GS-96 as marker): -97.3%
- inhibition at 10 µM (HIV-1 strain NL4-3): 20%
- inhibition at 100 µM (RBL-2H3 cells; [3]): 15%

Structure (SMILES): CCCCCCCc1c(C)c(OC)cc2c1[nH]c1ccccc12 [Compound 24d]
- inhibition at 100 µM (PR8 virus; read-out: inhibition of virus infection): 50.9%
- disrafting activity (% disrafting) ([1]; perylene as marker): -98.5%
- inhibition in influenza virus budding assay (influenza virus): inhibitory

Structure (SMILES): CCCCCCCCCCCCCCCCCCOc1cc2[nH]c3cc(OC)ccc3c2cc1C [Compound 25d]
- inhibition at 3.125 µM (PR8 virus): 18.4%
- inhibition in influenza virus budding assay (influenza virus): inhibitory
